Laboratory results from patent US20120252723A1, “Regulating the Amino Acid Pool Used for the Acute-Phase Protein Synthesis” (N.V. Nutricia, priority 2009, published 2012).
Entries after “also recorded” stand apart in the source; their conditions may differ.

Assays:
[1] = tested on: HepG2 cells; test: Fibrinogen secretion by HepG2 cells (ELISA of media); assay type: cell-based, human; settings: for inhibition of IL-6 induced fibrinogen secretion: IL-1β 10 ng/ml, insulin 1 μM; for fibrinogen secretion in media in which one amino acid was omitted: named amino acid omitted, isonitrogenously compensated with the other amino acids
Description: (§1) The effects of either the amino acid concentration or the amino acid composition on the acute-phase protein response in a human hepatocellular cell line (HepG2 cell) were studied. As model components, the production of fibrinogen and albumin were studied.
(§2) Cell culture: Human hepatoma HepG2 cells (ATCC HB-8065) were maintained in DMEM supplemented with 10% heat inactivated fetal calf serum (Life Technologies) with 2 mM glutamine and streptomycin/penicillin in Costar T75 flasks at 37° C. in a humidified atmosphere of 95% air-5% CO2. For experiments HepG2 cells were incubated in RPMI-1640 media without fetal calf serum. All experiments were carried out in 6 wells plates.
(§3) Incubations: HepG2 cells were grown in 6 wells plates to confluence, washed with DMEM ([…]) and subsequently incubated during 24-h with IL-6 and the custom media (RPMI-1640; RPMI-1640 select amino kit Gibco BRL). After the incubations, the media were collected and stored at −20° C. until analysis. The cells were then washed with phosphate-buffered saline (PBS) and lysed with 0.1M NaOH. The protein content was determined using the Bio-Rad Protein assay (Dye Reagent Concentrate, Bio-Rad Laboratories, Inc., Hercules Calif., USA) using bovine albumin (Sigma Aldrich) as standard. The data are presented as μg acute-phase protein in the supernatant per milligram protein cell content.
(§4) Antibodies: Rabbit anti-human fibrinogen and horseradish peroxidase (HRP)—conjugated rabbit anti-human fibrinogen were obtained from DakoCytomation (Denmark A/S, Glostrup, Denmark), anti-human albumin, HRP-conjugated anti-human albumin were obtained from Dade Behring B.V. (Leusden, the Netherlands).
(§5) ELISAs: Albumin and fibrinogen: 96-well flat-bottom Costar EIA/RIA plates were coated overnight with primary antibody in PBS at predetermined optimal concentration. After each incubation step, the plates were washed with 0.1% Tween-20 (Merck Eurolab B.V., Roden, the Netherlands) in PBS. After washing, the plates were blocked with 5% Protifar (Nutricia B.V., Zoetermeer, the Netherlands) in PBS during 90 min. Subsequently, the samples and antigen were incubated in 0.1% Tween-20 in PBS during 90 min. Next, the plates were incubated with HRP-conjugated antibodies in 0.1% Tween-20 in PBS during 90 min. The colorimetric reaction was carried out with undiluted 1-Step Ultra TMB-ELISA (Pierce, Rockland, Ill., USA). The reaction was stopped with 2 M sulphuric acid. The absorbances of the samples were measured at λ=450 nm.

[2] = tested on: HepG2 cells; test: Albumin secretion by HepG2 cells (ELISA of media); assay type: cell-based, human; settings: for albumin secretion in media in which one amino acid was omitted: named amino acid omitted, isonitrogenously compensated with the other amino acids
Description: as §1, §2, §3, §4, §5

[3] = added in combination with IL-6 10 ng/ml, n=6

Molecule	fibrinogen secretion in media in which one amino acid was omitted [1]	albumin secretion in media in which one amino acid was omitted [2]	other results
IL-1β: cytokine, used at 10 ng/ml [reference compound]	–	–	inhibition of IL-6 induced fibrinogen secretion [1, 3]: approximately 25%
N=C(N)NCCC[C@H](N)C(=O)O [Arg, arginine]	significantly decreased; also recorded: significantly inhibited	significantly decreased; also recorded: significantly inhibited	–
N[C@@H](CO)C(=O)O [Ser, serine]	significantly decreased; also recorded: significantly inhibited	significantly decreased; also recorded: significantly inhibited	–
C[C@@H]1C[C@H]2[C@@H]3CCC4=CC(=O)C=C[C@]4(C)[C@@]3(F)[C@@H](O)C[C@]2(C)[C@@]1(O)C(=O)CO [dexamethasone, reference compound]	–	–	enhancing effect on IL-6 induced fibrinogen secretion ([1]; added in combination with IL-6 10 ng/ml, dexamethasone 1 μM, n=6): 20%
IL-6: Human IL-6 obtained from Sigma Aldrich [reference compound]	–	–	fibrinogen secretion (excretion) from HepG2 cells ([1]; incubation with IL-6, range 1-10 ng/ml, 24-h, n=6): concentration-dependent relationship; also recorded: significantly induces; albumin secretion (excretion) from HepG2 cells ([2]; incubation with IL-6 or other cytokines/hormones, 24-h, n=6): no significant effects; also recorded: no effect
N[C@@H](CS)C(=O)O [cysteine]	significantly decreased; also recorded: significantly inhibited	significantly decreased; also recorded: significantly inhibited	–
insulin [reference compound]	–	–	inhibition of IL-6 induced fibrinogen secretion [1, 3]: 50%
